Active and inactive are the calls of the source. The calls are words filed in the database; no cut-off is given here.
What was measured:
[1] = tested on: HCT-116; assay: Antiproliferative activity against human HCT116 cells after 48 hrs by CCK8 assay; type: functional, cell-based; details: HCT-116, 48 h
[2] = target: T1, Aurora kinase A (Homo sapiens, UniProt O14965); assay: Inhibition of AURKA (unknown origin) using FAM-labeled peptide substrate preincubated for 10 mins followed by substrate addition measured after 60 mins by caliper assay
T1 sequence (O14965 whole entry): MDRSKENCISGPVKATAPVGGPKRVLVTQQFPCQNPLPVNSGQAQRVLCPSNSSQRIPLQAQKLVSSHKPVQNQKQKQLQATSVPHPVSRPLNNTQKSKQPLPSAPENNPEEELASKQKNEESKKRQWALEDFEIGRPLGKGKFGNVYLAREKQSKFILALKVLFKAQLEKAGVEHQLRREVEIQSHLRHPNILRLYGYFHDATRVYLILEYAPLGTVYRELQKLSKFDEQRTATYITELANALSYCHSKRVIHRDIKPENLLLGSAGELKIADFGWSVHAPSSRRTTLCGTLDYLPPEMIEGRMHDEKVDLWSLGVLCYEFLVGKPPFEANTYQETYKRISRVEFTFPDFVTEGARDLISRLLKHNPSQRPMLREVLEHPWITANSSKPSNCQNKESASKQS

[3] = tested on: MDA-MB-231; assay: Antiproliferative activity against human MDA-MB-231 cells after 48 hrs by CCK8 assay; type: functional, cell-based; details: MDA-MB-231, 48 h
[4] = tested on: MCF7; assay: Antiproliferative activity against human MCF7 cells after 48 hrs by CCK8 assay; type: functional, cell-based; details: MCF7, 48 h
[5] = tested on: K562; assay: Antiproliferative activity against human K562 cells after 48 hrs by CCK8 assay; type: functional, cell-based; details: K562, 48 h
[6] = tested on: HeLa; assay: Antiproliferative activity against human HeLa cells after 48 hrs by CCK8 assay; type: functional, cell-based
[7] = tested on: U-937; assay: Antiproliferative activity against human U937 cells after 48 hrs by CCK8 assay; type: functional, cell-based; details: U-937, 48 h
[8] = tested on: A-431; assay: Antiproliferative activity against human A431 cells after 48 hrs by CCK8 assay; type: functional, cell-based; details: A-431, 48 h
[9] = target: Aurora kinase B (Homo sapiens, UniProt Q96GD4); assay: Inhibition of AURKB (unknown origin) using FAM-labeled peptide substrate preincubated for 10 mins followed by substrate addition measured after 60 mins by caliper assay
[10] = tested on: MDA-MB-231; assay: Inhibition of alpha-tubulin in human MDA-MB-231 cells assessed as abolishment of regular location of protein at 0.5 uM after 48 hrs by DAPI staining based immunofluorescence assay; type: cell-based
[11] = tested on: MDA-MB-231; assay: Induction of aberrant spindle formation with tripolar and tetrapolar occurrence in human MDA-MB-231 cells at 1 uM after 48 hrs by DAPI staining based immunofluorescence assay; type: functional, cell-based
[12] = tested on: MDA-MB-231; assay: Induction of chromosome alignment defects in human MDA-MB-231 cells at 1 uM after 48 hrs by DAPI staining based immunofluorescence assay; type: functional, cell-based

Chain of Aurora kinase B (Q96GD4 whole entry): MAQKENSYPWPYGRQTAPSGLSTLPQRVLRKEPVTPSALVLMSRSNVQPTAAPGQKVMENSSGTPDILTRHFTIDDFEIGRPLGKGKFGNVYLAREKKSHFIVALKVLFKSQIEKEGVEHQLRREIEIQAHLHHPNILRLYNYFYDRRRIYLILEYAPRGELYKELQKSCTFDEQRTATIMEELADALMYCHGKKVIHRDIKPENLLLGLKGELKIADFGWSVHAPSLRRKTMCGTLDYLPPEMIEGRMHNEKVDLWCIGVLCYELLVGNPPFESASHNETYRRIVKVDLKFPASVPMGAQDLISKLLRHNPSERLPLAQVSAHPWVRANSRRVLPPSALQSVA

Row | SMILES | IC50 [1] [nM] | IC50 [2] [nM] | IC50 [3] [nM] | IC50 [4] [nM] | IC50 [5] [nM] | IC50 [6] [nM] | IC50 [7] [nM] | IC50 [8] [nM] | IC50 [9] [nM] | inhibition [10] | Activity [11] | Activity [12]
1 | COC(=O)c1ccc(Nc2nc(Nc3cc(C)[nH]n3)cc(N3CCN(C)CC3)n2)cc1F | 688 | 35 | 238 | 7630 | 393 | 507 | 94.2 | 375 | 145 |  |  | 
2 | COc1cc(Nc2ncc3c(n2)-c2ccc(Cl)cc2C(c2c(F)cccc2OC)=NC3)ccc1C(=O)O |  |  |  |  |  |  |  |  |  | Active | Active | Active
3 | Cc1cc(Nc2cc(N3CCOCC3)nc(Nc3ccc(F)c(Cl)c3)n2)n[nH]1 |  | 6.3 | 101 | 577 | 213 | 464 | 24 |  | 34.6 |  |  | 

Continued, in another order:

Row | IC50 [1] [nM] | IC50 [2] [nM] | IC50 [3] [nM] | IC50 [4] [nM] | IC50 [5] [nM] | IC50 [6] [nM] | IC50 [7] [nM] | IC50 [8] [nM] | IC50 [9] [nM] | SMILES | inhibition [10] | Activity [11] | Activity [12]
4 | 106 | 33 | 84.9 | 552 | 128 | 299 | 17.9 | 129 | 50 | Cc1cc(Nc2cc(N3CCN(C)CC3)nc(Nc3ccc(Cl)c(Cl)c3)n2)n[nH]1 |  |  | 
5 | 317 | 25 | 166 | 1260 | 184 | 486 | 33.1 | 201 | 102 | Cc1cc(Nc2cc(N3CCN(C)CC3)nc(Nc3cccc(F)c3)n2)n[nH]1 |  |  | 
6 | 653 | 23 | 255 | 873 | 357 | 680 | 43.2 | 340 | 75.1 | Cc1cc(Nc2cc(N3CCN(C)CC3)nc(Nc3ccc(F)cc3)n2)n[nH]1 |  |  | 

Source: ChEMBL document CHEMBL4145494, “Synthesis and biological evaluation of aurora kinases inhibitors based on N-trisubstituted pyrimidine scaffold” (Eur J Med Chem, 2018)
